Here are results for two molecules from US11925696B2, “Carbonic anhydrase IX targeting agents and methods” (priority 2016, dated 2024).

Where two headings read alike, the source gives them in different places.

Data set [1] has as its system HT-29 cells. Kind of data set: Fluorescent/confocal microscopy of Hypoxyfluor and CA IX-Rhodamine on HT-29 cells. The data set is classed as cell-based, human. Conditions: 1 hour incubation, unbound conjugate washed off.
Description: HT-29 cells (10^5) were seeded into chambered coverglass plates and allowed to grow to confluence over 48-72 hr. […] After incubation for 1 hour at 37° C., cells were rinsed three times with 1 mL of incubation solution to remove unbound fluorescence and 0.5 mL of fresh medium was added to the wells.
HT-29 cells that naturally express CA IX were used to determine cancer cell uptake and binding affinity of the newly synthesized conjugate. […] Fluorescence was quantitated as described above to determine binding affinity.
The test system of data set [2] is HT-29 cells. Briefly: Binding of Hypoxyfluor to HT-29 cells (cell associated fluorescence). Also noted: species or system human. The procedure:
After washing, the remaining fluorescence was quantitated by fluorescence spectroscopy. Error bars represent standard deviation.
HT-29 cells (10^5) were seeded into 24-well BD purecoat amine plates and allowed to grow to confluence over 48-72 hr. Spent medium was replaced with 0.5 mL of fresh medium containing 0.5% bovine serum albumin, and various concentrations of the dye conjugate alone or the dye conjugate plus 100-fold excess CA IX ligand were added. After incubation for 1 hour at 37° C., cells were rinsed with incubation solution (2×1.0 mL) to remove unbound fluorescence and dissolved in 0.5 mL of 1% aqueous sodium dodecyl sulfate. Cell associated fluorescence was then measured using an excitation of 745 nm and emission of 790 nm. All experiments were performed in triplicate. The dissociation constant (KD) was calculated from a plot of cell bound fluorescence (RFU) versus the concentration of fluorescent conjugate added using the program, Graphpad Prism, and assuming a noncooperative single site binding equilibrium.

The subject of a further data set is HT-29 tumor xenografts. The data set is classed as in vivo, mice. How it is done:
Mice bearing HT-29 tumors were injected via tail vein with 4 nmol Hypoxyfluor alone or in combination with 100-fold excess CA IX inhibitor. Fluorescence images were acquired 4 hours post injection.
Tissues and organs were excised after whole animal imaging and the fluorescence images of the isolated tissues were acquired.
Mice bearing HT-29 tumors were injected via tail vein with the indicated concentrations of Hypoxyfluor and fluorescence images were acquired 4 hours post injection.
Using a 25-gauge needle, six-week-old female nu/nu mice were inoculated subcutaneously in their shoulders with HT-29 cells in RPMI1640 medium (5.0×10^6 cells per mouse). Tumor growth was measured in 2 perpendicular directions every 2 days with a caliper. Tumor volumes were calculated using the formula 0.5×L×W^2, where L is the measurement of the longest axis and W is the measurement of the axis perpendicular to L. Tumor bearing mice were treated via tail vein injection with different concentrations of Hypoxyfluor in the presence or absence of 100-fold CA IX ligand to block all unoccupied CA IX binding sites. Mice were imaged 4 hours post injection using a Caliper IVIS Lumina II Imaging station coupled to an ISOON5160 Andor Nikon camera equipped with Living Image Software Version 4.0. Image acquisition settings were as follows: lamp level, high; excitation, […]; emission, ICG; epi illumination; binning (M) 4; FOV, 12.5; f-stop, 4; acquisition time, 1 s.

Data set [3] deals with HT-29 cells. Kind of data set: 99mTc conjugates binding to HT-29 cells (apparent KD, gamma counting). Also noted: species or system human. The procedure: HT-29 cells (150,000 cells/well in 500 μL) were seeded into 24-well Falcon plates and allowed to form monolayers over 48 h. […] After incubating for 1 h at 37° C., cells were rinsed twice with 1 mL of medium and 1 mL of tris buffer. After dissolving in 0.5 mL of 0.25 M NaOH (aq), cells were transferred into individual γ-counter tubes and radioactivity was counted using a γ-counter (Packard, Packard Instrument Company). Apparent KD was calculated by plotting bound radioactivity versus the concentration of radiotracer using GraphPad Prism 4.

A further data set has as its system HT-29 xenografts. The following applies: mouse, in vivo.
Where [4] appears, read: 4 nmol tail vein, 4 hours post injection.

Description for HT-29 xenografts: Additional mice were simultaneously injected with 100 nmol of unlabeled L2 or L3 ligand. Major tissues/organs were removed and the amount of radioactivity was determined. The percentage of injected dose/g of tissue was calculated and plotted. Error bars represent standard deviation.
Five-week-old male nu/nu mice were inoculated subcutaneously with HT-29 cells (5.0×10^6/mouse) on their shoulders. Growth of the tumors was measured in two perpendicular directions every 2 days using a caliper (body weights were monitored on the same schedule), and the volumes of the tumors were calculated as 0.5×L×W^2 (L=longest axis and W=axis perpendicular to L in millimeters). […] At various times, animals were sacrificed by CO2 asphyxiation. Images were acquired by shielding the kidneys via a Kodak Imaging Station (In-Vivo FX, Eastman Kodak Company) in combination with CCD camera and Kodak molecular imaging software (version 4.0). Radioimages: illumination source=radio isotope, acquisition time=3 min, f-stop=4, focal plane=5, FOV=160, binning=4. […] Radioactivity of preweighed tissues and ^99mTc-bound conjugates (10 nmol, 150 μCi) in saline (100 μL) was counted in a γ-counter. CPM values were decay corrected, and results were calculated as % injected dose (ID)/gram of wet tissue.

With `COC(=O)N(CCN(CC(=O)NCCOCCOCCOCCOCCOCCOCCOCCOCCOCCOCCOCCOCCC(=O)CCCc1ccc(OC2=C(/C=C/C3=[N+](CCCCS(=O)(=O)O)c4ccc(S(=O)(=O)O)cc4C3(C)C)CCC/C2=C\C=C2\N(CCCCS(=O)(=O)O)c3ccc(S(=O)(=O)O)cc3C2(C)C)cc1)CC(=O)Nc1ccc(S(N)(=O)=O)cc1)CC(=O)Nc1ccc(S(N)(=O)=O)cc1` [Hypoxyfluor], in the data set on HT-29 cells [1], the “location of binding on cultured HT-29 cells” value was “binding was seen on both the cell surface and internal endosomes”. In addition, the Kd with HT-29 cells [2] (1 hour at 37° C., excitation 745 nm, emission 790 nm, triplicate, read-out: apparent dissociation constant) came to 45 nM. Moreover, the “binding after pre-incubation with 100-fold excess of the unconjugated ligand” value in the data set on HT-29 cells [2] (HT-29 cells) was “binding was competed”. Also, in the data set on HT-29 tumor xenografts (setting [4]), the whole animal fluorescence result is “predominately detected in the tumor” and the “whole animal fluorescence with 400 nmol CA IX ligand” value is “no fluorescent signal could be detected”. In addition, the “whole body fluorescence, dose escalation” value in the data set with HT-29 tumor xenografts (40 nmol/mouse) is given as “nontumor associated fluorescence became apparent”. In addition, in the data set with HT-29 tumor xenografts (low and intermediate doses (3 and 13 nmol)), the “whole body fluorescence, dose escalation” value is reported as “fluorescence was restricted to the tumor”.
In the case of `N[C@H](CNC(=O)CCOCCOCCOCCOCCOCCOCCOCCOCCOCCOCCOCCOCCNC(=O)CN(CCN(CC(=O)O)CC(=O)Nc1ccc(S(N)(=O)=O)cc1)CC(=O)Nc1ccc(S(N)(=O)=O)cc1)C(=O)N[C@@H](CC(=O)O)C(=O)NC[C@H](CS)C(=O)O` [L2-PEG12-EC20], in the data set with HT-29 cells [3] (99mTc-bound conjugate, 1 h at 37° C., read-out: Binding Affinity (apparent KD)), the Kd was 54 nM. The “decrease of binding by addition of the PEG12-EC20” value in the data set on HT-29 cells [3] (binding affinity of conjugate versus reported Ki of original ligand) is about 7 fold. Moreover, the “overall percentage of the injected dose retained in the tissues” value with HT-29 xenografts is “somewhat lower overall percentage of the injected dose being retained in the tissues”.
